In patent US10968209B2, “TRPV4 antagonist” (GlaxoSmithKline Intellectual Property (No.2) Limited, priority 2016, dated 2021):

Target: T1, human TRPV4 (Homo sapiens, UniProt Q9HBA0)
T1 construct: expressed in transfected cells; host or cells: HEK293 MSRII cells (BacMam transduction)
Experiment: Ligand-gated assay: FLIPR assay for human TRPV4 expressed in HEK293 MSRII cells
Format: cell-based
Conditions: HEK293 MSRII cells transduced with BacMam virus expressing human TRPV4; Fluo-4 calcium signal; agonist at EC80; read-out: activity (inhibition of Agonist Compound-induced calcium signal)
From the text: FLIPR Assay for Human TRPV4 Expressed in HEK293 MSRII Cells
TRPV4 channel activation results in an influx of divalent and monovalent cations including calcium. The resulting changes in intracellular calcium were monitored using a calcium specific fluorescent dye Fluo-4 (MDS Analytical Technologies). HEK293 MSRII cells (human embryonic kidney 293 cells stably expressing the macrophage scavenger receptor class II) transduced with BacMam virus expressing the human TRPV4 gene at 1% final concentration were plated in a 384 well poly-D lysine coated plate (15,000 cells/well in 50 μL culture medium containing DMEM/F12 with 15 mM HEPES, 10% FBS, 1% Penicillin-Streptomycin and 1% L-glutamine). Cells were incubated for 24-72 hours at 37° C. and 5% CO2. Culture medium was then aspirated using a Tecan plate-washer and replaced with 20 μL/well of dye loading buffer: HBSS, 500 μM Brilliant Black (MDS Analytical Technologies), and 2 μM Fluo-4 AM. Dye loaded plates were then incubated in the dark at room temperature for 1-1.5 hours. […] Calcium signals were measured using FLIPR^TETRA (MDS Analytical Technologies) or FLIPR384 (MDS Analytical Technologies) and the inhibition of Agonist Compound-induced calcium signal by the test compound was determined.

T1 sequence (Q9HBA0 whole entry): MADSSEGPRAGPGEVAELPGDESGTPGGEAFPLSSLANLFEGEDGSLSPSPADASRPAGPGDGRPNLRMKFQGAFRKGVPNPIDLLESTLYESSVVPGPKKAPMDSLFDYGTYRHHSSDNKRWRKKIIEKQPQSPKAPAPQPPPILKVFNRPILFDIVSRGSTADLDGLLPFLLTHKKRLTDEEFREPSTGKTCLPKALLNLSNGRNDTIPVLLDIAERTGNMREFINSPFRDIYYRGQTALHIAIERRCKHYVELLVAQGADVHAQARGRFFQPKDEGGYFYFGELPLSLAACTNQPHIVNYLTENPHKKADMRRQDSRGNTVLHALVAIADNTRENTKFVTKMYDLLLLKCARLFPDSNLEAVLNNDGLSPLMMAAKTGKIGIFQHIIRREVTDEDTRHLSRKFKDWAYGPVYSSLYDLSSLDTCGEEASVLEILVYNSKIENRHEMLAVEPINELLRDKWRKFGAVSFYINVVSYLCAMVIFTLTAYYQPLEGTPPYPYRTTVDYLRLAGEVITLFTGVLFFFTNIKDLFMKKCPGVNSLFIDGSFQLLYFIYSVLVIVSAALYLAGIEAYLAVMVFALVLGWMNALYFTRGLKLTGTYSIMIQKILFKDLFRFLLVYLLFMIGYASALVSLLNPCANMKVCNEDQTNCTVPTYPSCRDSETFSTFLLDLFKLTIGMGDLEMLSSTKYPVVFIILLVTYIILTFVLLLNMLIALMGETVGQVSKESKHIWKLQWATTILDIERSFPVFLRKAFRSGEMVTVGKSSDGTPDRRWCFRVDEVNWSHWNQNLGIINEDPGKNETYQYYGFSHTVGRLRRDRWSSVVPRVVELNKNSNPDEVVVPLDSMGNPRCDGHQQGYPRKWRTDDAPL

## N#Cc1ccc2ncn(C[C@@]3(O)CCC[C@@]4(CN(c5cnc(C6CC6)cn5)C(=O)O4)C3)c2c1 [Compound A, 1-(((5S,7R)-3-(5-cyclopropylpyrazin-2-yl)-7-hydroxy-2-oxo-1-oxa-3-azaspiro[4.5]decan-7-yl)methyl)-1H-benzo[d]imidazole-6-carbonitrile]
  IC50: 6.3 nM
